Data taken from PubChem BioAssay (NCI).
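1) Cells in 96-well plates. 2) Compound, 48 h, 5 concentrations. 3) Linear interpolation between surrounding doses. 4) Unreached endpoint = highest concentration. TGI marks complete inhibition of growth.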

Tests used:
Experiment in all cases: NCI tumour cell line growth inhibition, 48 h
COLO 205 colon = tested on: COLO 205 colon
HCC-2998 colon = tested on: HCC-2998 colon
SK-MEL-2 melanoma = tested on: SK-MEL-2 melanoma
SN12C renal = tested on: SN12C renal
SR leukemia = tested on: SR leukemia
U251 CNS = tested on: U251 CNS
HCT-15 colon = tested on: HCT-15 colon
MCF7 breast = tested on: MCF7 breast
MDA-MB-231 breast = tested on: MDA-MB-231 breast
T-47D breast = tested on: T-47D breast

| Structure (SMILES) | TGI (COLO 205 colon) [µM] | TGI (HCC-2998 colon) [µM] | TGI (SK-MEL-2 melanoma) [µM] | TGI (SN12C renal) [µM] | TGI (SR leukemia) [µM] | TGI (U251 CNS) [µM] | TGI (HCT-15 colon) [µM] | TGI (MCF7 breast) [µM] | TGI (MDA-MB-231 breast) [µM] | TGI (T-47D breast) [µM] |
| --- | --- | --- | --- | --- | --- | --- | --- | --- | --- | --- |
| C=CCCN1CCc2c([nH]c3ccccc23)C1C(=O)O (stereo unspecified) | > 100 | > 100 | > 100 | > 100 | > 100 | > 100 | – | – | – | – |
| CCCCN1C(=O)N(c2ccc(OCC)cc2)C2N(CCCC)C1C(C)(C)C2(C)C (stereo unspecified) | 70 | > 100 | > 100 | > 100 | – | > 100 | > 100 | 47.5 | > 100 | > 100 |
| CCOC(=O)C(=Cc1[nH]c2ccccc2c1-c1c[nH]c2ccccc12)C(=O)OCC | 40.8 | 25 | 29.6 | 29.4 | 32.7 | 24.3 | 43.9 | 22.2 | 39.3 | – |
| COc1ccccc1/C=C1\SC(=S)N(/C=C2\C(=O)Oc3ccccc3C2=O)C1=O | 50.4 | – | 59.4 | – | – | > 100 | > 100 | > 100 | 47.7 | – |
| Cc1cccc(N=NC(=O)NNc2cccc(C)c2C)c1C | – | 31.7 | 46.7 | > 100 | > 100 | > 100 | > 100 | – | > 100 | > 100 |
| N#CC(NC12CC3CC(CC(C3)C1)C2)c1ccccc1C(F)(F)F (stereo unspecified) | > 100 | > 100 | > 100 | > 100 | > 100 | – | > 100 | – | – | – |
| CC1NC(=O)CC(c2ccccc2)N(N=O)C1c1ccccc1 (stereo unspecified) | > 72.9 | > 100 | > 85.9 | > 100 | – | > 100 | > 100 | > 100 | – | – |
| COC1C=CC(O)C(CO)O1 (stereo unspecified) | – | > 100 | > 100 | > 100 | > 100 | > 100 | > 100 | – | – | – |
| Cc1ccc(/C=C2\CCCc3ccccc3C2=O)cc1 | 18.9 | – | 9.07 | 39.6 | 37.1 | 52.9 | 27.2 | 47.3 | 36.9 | – |
| COc1cc(C(=O)N(Cc2cccnc2)C(=S)N(Cc2cccnc2)C(=O)c2cc(OC)c(OC)c(OC)c2)cc(OC)c1OC | > 100 | 62.2 | – | > 100 | > 100 | – | > 100 | 34.9 | – | > 100 |
| CC12C(=O)CC(CC1=O)C2(C)C | > 100 | – | > 100 | > 100 | – | – | > 100 | > 100 | – | > 100 |
| NC(N)=N/N=C/c1c[nH]c2ccccc12 | > 100 | > 100 | > 100 | > 100 | > 100 | > 100 | > 100 | – | – | – |
| COc1ccc(C2OC[C@H]3O[C@@H](OCc4ccccc4)[C@H](O)[C@@H](O)[C@@H]3O2)cc1 (stereo partly specified) | > 100 | > 100 | > 100 | > 100 | > 100 | > 100 | > 100 | > 100 | > 100 | – |
| COc1ccc(C(=C(Cl)c2ccccc2)c2ccc(OC)cc2)cc1 | > 100 | – | > 100 | > 100 | – | > 100 | > 100 | > 100 | > 100 | > 100 |
| O=P(Nc1ccc(Cl)cc1)(Oc1ccccc1)N(CCCl)CCCl (stereo unspecified) | > 100 | > 100 | > 100 | > 100 | > 100 | > 100 | > 100 | – | – | – |
| O=C(N/N=C/c1ccccc1)c1c(-c2cccnc2)cnc2ccccc12 | > 100 | > 100 | > 100 | > 100 | > 100 | > 100 | > 100 | > 100 | – | – |
| O=C1C=C(C2=CC(=O)C(=O)c3ccccc32)c2ccccc2C1=O | 38.9 | – | 72.3 | > 100 | – | > 100 | > 100 | 48.3 | 53.3 | 56.1 |
| Cn1cc(NC(=O)c2cc(NC(=O)CN=C(N)N)cn2C)cc1C(=O)NCCC(=N)N | > 100 | > 100 | > 100 | > 100 | > 100 | > 100 | > 100 | > 100 | – | > 100 |
| Cc1ccc(-c2c(C#N)c(-c3ccc(Cl)cc3)c(C#N)c(=O)n2NS(=O)(=O)c2ccc(C)cc2)cc1 | > 100 | 74.9 | 40.4 | > 100 | – | > 100 | > 100 | 36.5 | > 100 | – |
| NC(N)=NCCC[C@H](N)C(=O)NCC(=O)N[C@@H](CC(=O)O)c1ncc(NC(=O)C(F)(F)F)o1 | > 25 | > 25 | > 25 | – | – | > 25 | > 25 | > 25 | – | > 25 |
| CC(=O)OC(/C=C/c1ccccc1)=C(OC(C)C)/C1=C(\c2ccccc2)SCCCSC1=O | > 100 | > 100 | > 100 | – | – | > 100 | > 100 | > 100 | > 100 | – |
